{"source": "patent US7385088B1", "about": "“Compounds from Antrodia camphorata” (Golden Biotechnology Corporation, priority 2007, dated 2008)", "type_in_all_cases": "cell-based", "key": {"[1]": {"tested_on": "A549", "experiment": "MTT survival assay, lung cancer cells A549", "settings": "Homo sapiens, 48 hours", "source_text": "Therefore Antroquinonol B and Antroquinonol C can be used in inhibiting cancer cell growth of breast cancer, lung cancer, hepatic cancer, and prostate cancer, which can further be applied in cancer treatment of breast cancer, lung cancer, hepatic cancer, prostate cancer and the like. The details of the examples are described as follows: MTT assay is commonly used to determine cell proliferation, percent of viable cells, and cytotoxicity. 3-[4,5-dimethylthiazol-2-yl]2,5-diphenyltetrazolium bromide (MTT) is a yellow dye, which can be absorbed by the living cells and be reduced to purplish blue formazan crystals by succinate tetrazolium reductase in mitochondria. Formazan formation can therefore be used to assess and determine the survival rate of cells. The NCI anti-cancer drug screen model was also employed to test the anti-lung cancer effect of the Antroquinonol B and Antroquinonol C in the present invention. The Antroquinonols isolated from example 1 were added into the culture media of human lung cancer cell A549 with the abovementioned MTT assay to analyze lung cancer cell survival rates. Human lung cancer cell A549 was obtained from the Bioresources Collection and Research Center (BCRC) of the Food Industry Research and Development Institute with an accession number of BCRC 60074. […] The plates were read on an ELISA reader at wavelength of 570 nm to determine the survival rates."}, "[2]": {"tested_on": "LNCaP", "experiment": "MTT survival assay, prostate cancer cells LNCaP", "settings": "Homo sapiens, androgen-dependent prostate cancer cells, 48 hours", "source_text": "(§1) Therefore Antroquinonol B and Antroquinonol C can be used in inhibiting cancer cell growth of breast cancer, lung cancer, hepatic cancer, and prostate cancer, which can further be applied in cancer treatment of breast cancer, lung cancer, hepatic cancer, prostate cancer and the like. The details of the examples are described as follows:\n(§2) MTT assay is commonly used to determine cell proliferation, percent of viable cells, and cytotoxicity. 3-[4,5-dimethylthiazol-2-yl]2,5-diphenyltetrazolium bromide (MTT) is a yellow dye, which can be absorbed by the living cells and be reduced to purplish blue formazan crystals by succinate tetrazolium reductase in mitochondria. Formazan formation can therefore be used to assess and determine the survival rate of cells.\n(§3) The NCI anti-cancer drug screen model was also employed to test the anti-cancer effect of the Antroquinonols in the present invention. Antroquinonol B and Antroquinonol C isolated from example 2 were added into the culture media of human prostate cancer cells, LNCaP or DU-145, and prostate cancer cell survival rates were analyzed with the abovementioned MTT assay. […]\n(§4) The human prostate-cancer cells, LNCaP and DU-145, were cultivated in media containing fetal calf serum for 24 hours. […] The plates were read on an ELISA reader at wavelength of 570 nm to determine the survival rates."}, "[3]": {"tested_on": "MCF-7", "experiment": "MTT survival assay, breast cancer cells MCF-7", "settings": "Homo sapiens, MCF7, estrogen-dependent breast cancer cells, 48 hours", "source_text": "(§5) Therefore Antroquinonol B and Antroquinonol C can be used in inhibiting cancer cell growth of breast cancer, lung cancer, hepatic cancer, and prostate cancer, which can further be applied in cancer treatment of breast cancer, lung cancer, hepatic cancer, prostate cancer and the like. The details of the examples are described as follows: The NCI anti-cancer drug screen model was adopted to test the anti-cancer effect of the isolated compounds from example 1 in the present invention. The isolated Antroquinonol B and Antroquinonol C from example 1 were added into the culture media of human breast-cancer cells, MCF-7 or MDA-MB-231, to test for tumor cell survival. This survival assay was carried out with the widely known MTT (3-[4,5-dimethylthiazol-2-yl]2,5-diphenyltetrazolium bromide) assay. MCF-7 cell line is originated from primary breast cancer cells (early stage), sensitive to estrogen and therefore is estrogen-dependent, while MDA-MB-231 is insensitive to estrogen and therefore is estrogen-independent, which is a difficult tumor with a low survival rate. MTT assay is commonly used to determine cell proliferation, percent of viable cells, and cytotoxicity. […] The plates were read on an ELISA reader at wavelength of 570 nm to determine the survival rates."}, "[4]": {"tested_on": "MDA-MB-231", "experiment": "MTT survival assay, breast cancer cells MDA-MB-231", "settings": "Homo sapiens, estrogen-independent breast cancer cells, 48 hours", "source_text": "as §5"}, "[5]": {"tested_on": "Hep3B", "experiment": "MTT survival assay, hepatic cancer cells Hep 3B", "settings": "Homo sapiens, 48 hours", "source_text": "(§6) Therefore Antroquinonol B and Antroquinonol C can be used in inhibiting cancer cell growth of breast cancer, lung cancer, hepatic cancer, and prostate cancer, which can further be applied in cancer treatment of breast cancer, lung cancer, hepatic cancer, prostate cancer and the like. The details of the examples are described as follows: MTT assay is commonly used to determine cell proliferation, percent of viable cells, and cytotoxicity. 3-[4,5-dimethylthiazol-2-yl]2,5-diphenyltetrazolium bromide (MTT) is a yellow dye, which can be absorbed by the living cells and be reduced to purplish blue formazan crystals by succinate tetrazolium reductase in mitochondria. Formazan formation can therefore be used to assess and determine the survival rate of cells. The NCI anti-cancer drug screen model was employed to test the anti-cancer effect of the Antroquinonol B and Antroquinono C in the present invention. The Antroquinonos isolated from example 1 were added into the culture media of human hepatic-cancer cells, Hep 3B or Hep G2, for tumor cell survival assay. Hepatic-cancer cells Hep 3B (BCRC 60434) and Hep G2 (BCRC 60025), were obtained from the Bioresources Collection and Research Center (BCRC) of the Food Industry Research and Development Institute. […] The plates were read on an ELISA reader at wavelength of 570 nm to determine the survival rates."}, "[6]": {"tested_on": "DU-145", "experiment": "MTT survival assay, prostate cancer cells DU-145", "settings": "Homo sapiens, androgen-independent prostate cancer cells, 48 hours", "source_text": "as §1, §2, §3, §4"}, "[7]": {"tested_on": "HepG2", "experiment": "MTT survival assay, hepatic cancer cells Hep G2", "settings": "Homo sapiens, 48 hours", "source_text": "as §6"}}}
{"smiles": "COC1=C(OC)[C@H](O)[C@H](C/C=C(\\C)CC/C=C(/C)C/C=C/C(C)(C)O)[C@@H](C)C1=O", "note": "[Antroquinonol B]", "values": [{"measurement": "IC50", "setting": "[1]", "result": 11.9, "unit": "µg/mL"}, {"measurement": "IC50", "setting": "[2]", "result": 5.67, "unit": "µg/mL"}, {"measurement": "IC50", "setting": "[3]", "result": 1.94, "unit": "µg/mL"}, {"measurement": "IC50", "setting": "[4]", "result": 8.72, "unit": "µg/mL"}, {"measurement": "IC50", "setting": "[5]", "result": 1.21, "unit": "µg/mL"}, {"measurement": "IC50", "setting": "[6]", "result": 10.1, "unit": "µg/mL"}, {"measurement": "IC50", "setting": "[7]", "result": 3.32, "unit": "µg/mL"}]}
{"smiles": "COC1=C(OC)[C@H](O)[C@H](C/C=C(\\C)CC/C=C(/C)C/C=C/C(C)(C)OC)[C@@H](C)C1=O", "note": "[Antroquinonol C]", "values": [{"measurement": "IC50", "setting": "[1]", "result": 8.21, "unit": "µg/mL"}, {"measurement": "IC50", "setting": "[2]", "result": 8.72, "unit": "µg/mL"}, {"measurement": "IC50", "setting": "[3]", "result": 1.17, "unit": "µg/mL"}, {"measurement": "IC50", "setting": "[4]", "result": 21.9, "unit": "µg/mL"}, {"measurement": "IC50", "setting": "[5]", "result": 1.32, "unit": "µg/mL"}, {"measurement": "IC50", "setting": "[6]", "result": 12.2, "unit": "µg/mL"}, {"measurement": "IC50", "setting": "[7]", "result": 5.12, "unit": "µg/mL"}]}
